From patent US11229664B2, “Treatment of myelosuppression” (priority 2012, dated 2022) come the findings set out here.

This assay has as its system platelets. Put plainly: Clinical trials of ODSH adjunctive to induction and consolidation therapy in AML (platelet counts, need for transfusion). The format is in vivo, human. The protocol:
A clinical trial is conducted to confirm the therapeutic advantage of ODSH administered adjunctively to induction and consolidation therapy and subsequent allogeneic or autologous bone marrow transplantation in the treatment of acute myelogenous leukemia (AML). Subjects included in the trial are subjects diagnosed with AML who are undergoing induction and consolidation therapy. Subjects are randomly assigned to either a control group (receiving only induction and consolidation therapy) or a treatment group (receiving adjunctive administration of ODSH). ODSH is administered as a continuous infusion (0.375 mg/kg/hr). Subjects in each arm of the trial are evaluated for platelet counts and the need for platelet transfusion. Further metrics evaluated include measurement of circulating levels of PF4 and rate of granulocyte recovery.
A second clinical trial is conducted to confirm the advantage of ODSH administered adjunctively to induction and consolidation chemotherapy in the treatment of AML. The trial is an open-label pilot study often patients newly diagnosed with AML and not previously treated for AML. Patient treatment regimens are as follows. […] Subjects are evaluated for the degree and duration of thrombocytopenia, based on platelet counts and need for transfusion.

Turning to “substantially 2-O, 3-O desulfated heparin [ODSH]”, where the note is “ODSH 4 mg/kg bolus then 0.25 mg/kg/hr, cytarabine + idarubicin”, the “Thrombocytopenia in AML patients on induction and consolidation chemotherapy (second trial)” value is reported as “attenuates thrombocytopenia”. Where the note is “ODSH continuous infusion 0.375 mg/kg/hr, adjunctive”, the “Thrombocytopenia in AML patients on induction and consolidation therapy (first trial)” value is on record as “attenuates thrombocytopenia”.
